Converted amounts (≈) assume the structure as drawn. “And” between values parts separate entries of the source, which are not always exact repeats. Equal values may be shown once.
Assays:
Experiment in all cases: ≥ marks a high value that may be exact or a test limit, other limits are often not marked, values filed in µg/mL are converted to µM
[1] = system: Candida albicans NCPF 1467
[2] = system: Enterococcus faecalis NCTC 12697
[3] = system: Escherichia coli NCTC 10418
[4] = system: Pseudomonas aeruginosa ATCC 27853
[5] = system: Staphylococcus aureus ATCC 12493
[6] = system: Staphylococcus aureus NCTC 10788
[7] = system: Candida albicans CA1
[8] = system: Candida krusei ATCC 40095
[9] = system: Candida krusei ATCC 40147
[10] = system: Candida parapsilosis ATCC 90018
[11] = system: Acinetobacter baumannii
[12] = system: Bacillus cereus ATCC 11778
[13] = system: Enterococcus faecalis ATCC 29212
[14] = system: Escherichia coli ATCC 25922
[15] = system: Escherichia coli O157:H7
[16] = system: Listeria monocytogenes 10403s
[17] = system: Salmonella enterica subsp. enterica serovar Typhimurium ATCC 13311
[18] = system: Shigella sonnei ATCC 11060
[19] = system: Staphylococcus aureus ATCC 25923
[20] = system: Staphylococcus epidermidis ATCC 12228
[21] = system: Vibrio cholerae O1 Inaba
[22] = system: Klebsiella pneumoniae ATCC 13866
[23] = system: Escherichia coli TOP 10
[24] = system: Staphylococcus aureus SH1000
[25] = system: Escherichia coli UB1005
[26] = system: Lacticaseibacillus rhamnosus 1.0385
[27] = system: Lacticaseibacillus rhamnosus 1.0386
[28] = system: Lacticaseibacillus rhamnosus 1.0911
[29] = system: Lacticaseibacillus rhamnosus 1.0925
[30] = system: Lacticaseibacillus rhamnosus 7469
[31] = system: Lactiplantibacillus plantarum 8014
[32] = system: Staphylococcus aureus ATCC 29213
[33] = system: Staphylococcus aureus ATCC 43300
[34] = system: Candida albicans CGMCC 2.2086
[35] = system: Candida albicans
[36] = system: Candida parapsilosis CGMCC 2.3989
[37] = system: Candida tropicalis CGMCC 2.1975
[38] = system: Aspergillus oryzae NBRC 100959
[39] = system: Candida viswanathii NBRC 10321
[40] = system: Escherichia coli NBRC 3972
[41] = system: Micrococcus luteus NBRC 3333
[42] = system: Pseudomonas putida NBRC 100650
[43] = system: Staphylococcus epidermidis NBRC 12993

`CC[C@H](C)[C@H](NC(=O)[C@@H](NC(=O)CNC(=O)[C@@H]1CCCN1C(=O)[C@@H](NC(=O)[C@@H](NC(=O)[C@H](CC(N)=O)NC(=O)[C@H](C)NC(=O)[C@H](C)NC(=O)[C@@H](NC(=O)[C@H](CCCCN)NC(=O)[C@H](CC(C)C)NC(=O)[C@@H](NC(=O)CNC(=O)[C@@H]1CCCN1C(=O)[C@H](CC(C)C)NC(=O)[C@@H](N)Cc1ccccc1)[C@@H](C)CC)C(C)C)C(C)C)C(C)C)C(C)C)C(=O)O` [FLPGILKVAANVVPGVI] was tested, and the MIC [1] was at least 512 µM, the MIC [2] was at least 512 µM and the MIC [3] was at least 512 µM. The MIC [4] was over 512 µM, the MIC [5] was at least 512 µM and the MIC [6] was at least 512 µM.

For `CC[C@H](C)[C@H](NC(=O)[C@H](C)NC(=O)[C@H](CCCCN)NC(=O)[C@H](CC(C)C)NC(=O)[C@H](C)NC(=O)[C@H](Cc1c[nH]c2ccccc12)NC(=O)[C@H](CCCCN)NC(=O)[C@H](C)NC(=O)[C@H](CC(C)C)NC(=O)[C@@H](NC(=O)CNC(=O)[C@H](Cc1c[nH]c2ccccc12)NC(=O)[C@@H](N)Cc1ccccc1)[C@@H](C)O)C(=O)O` [FWGTLAKWALKAI], the MIC [7] was 10 µM (≈ 15 µg/mL), the MIC [8] was 10 µM and 20 µM and the MIC [9] was 10 µM (≈ 15 µg/mL). The MIC [10] was 20 µM (≈ 30.1 µg/mL).

`CC[C@H](C)[C@H](NC(=O)[C@H](CCCN=C(N)N)NC(=O)[C@H](CCCCN)NC(=O)[C@H](C)NC(=O)[C@@H](NC(=O)[C@@H](N)CCCCN)[C@@H](C)CC)C(=O)N[C@@H](Cc1c[nH]c2ccccc12)C(=O)N[C@@H](CCCCN)C(=O)N[C@H](C(=O)N[C@@H](CC(C)C)C(=O)N[C@@H](CCCN=C(N)N)C(=O)N[C@@H](CCCN=C(N)N)C(=O)N[C@@H](CCCN=C(N)N)C(=O)N[C@@H](CC(C)C)C(=O)N[C@@H](Cc1ccccc1)C(=O)N[C@@H](CCCN=C(N)N)C(N)=O)[C@@H](C)CC` [KIAKRIWKILRRRLFR] showed an MIC [11] of 3.63 µM (≈ 7.81 µg/mL), an MIC [12] of 1.82 µM (≈ 3.91 µg/mL) and an MIC [13] of 7.26 µM (≈ 15.6 µg/mL). It also gave an MIC [14] of 3.63 µM (≈ 7.81 µg/mL), an MIC [15] of 29 µM (≈ 62.5 µg/mL) and an MIC [16] of 1.82 µM (≈ 3.91 µg/mL). For the same molecule, the MIC [4] was 3.63 µM (≈ 7.81 µg/mL), the MIC [17] was 0.905 µM (≈ 1.95 µg/mL) and the MIC [18] was 1.82 µM (≈ 3.91 µg/mL). The MIC [19] was 3.63 µM (≈ 7.81 µg/mL), the MIC [20] was 1.82 µM (≈ 3.91 µg/mL) and the MIC [21] was 1.82 µM (≈ 3.91 µg/mL).

For `CC[C@H](C)[C@H](NC(=O)CN)C(=O)N[C@@H](Cc1cnc[nH]1)C(=O)NCC(=O)N[C@H](C(=O)N[C@H](C(=O)N[C@@H](CCCN=C(N)N)C(=O)N[C@@H](CO)C(=O)N[C@@H](Cc1ccccc1)C(=O)N[C@@H](CCSC)C(=O)N[C@@H](CCCN=C(N)N)C(=O)N[C@@H](CCSC)C(=O)N[C@@H](CC(C)C)C(=O)NCC(=O)N[C@@H](Cc1cnc[nH]1)C(=O)N[C@@H](CC(C)C)C(=O)NCC(=O)O)C(C)C)C(C)C` [GIHGVVRSFMRMLGHLG], the MIC [22] was at least 34.3 µM and the MIC [4] was 4.28 µM (≈ 8 µg/mL).

`CC[C@H](C)[C@H](NC(=O)[C@H](C)NC(=O)[C@H](CS)NC(=O)[C@H](CC(C)C)NC(=O)[C@@H](NC(=O)[C@H](C)NC(=O)[C@H](CCCN=C(N)N)NC(=O)[C@@H](NC(=O)[C@@H](NC(=O)[C@H](CCCCN)NC(=O)[C@@H](NC(=O)[C@@H](NC(=O)[C@@H]1CCCN1C(=O)CNC(=O)[C@H](CC(C)C)NC(=O)[C@@H](N)Cc1ccccc1)[C@@H](C)CC)[C@@H](C)CC)[C@@H](C)O)C(C)C)C(C)C)C(=O)N[C@@H](CCCCN)C(=O)N[C@@H](CCCCN)C(=O)N[C@@H](CC(C)C)C(N)=O` [FLGPIIKTVRAVLCAIKKL] gave an MIC [23] of 12 µM (≈ 25 µg/mL).

For `CC[C@H](C)[C@H](NC(=O)[C@H](CC(=O)O)NC(=O)[C@H](CC(C)C)NC(=O)[C@H](CC(C)C)NC(=O)[C@@H](N)CCCCN)C(=O)N[C@H](C(=O)N[C@@H](CCCCN)C(=O)N[C@@H](CCCCN)C(=O)N[C@H](C(=O)N[C@H](C(=O)NCC(=O)N[C@@H](C)C(=O)N[C@@H](CC(C)C)C(=O)NCC(N)=O)C(C)C)C(C)C)C(C)C` [KLLDIVKKVVGALG], the MIC [24] was at least 100 µM.

`NC(=O)CC[C@H](NC(=O)[C@H](Cc1c[nH]c2ccccc12)NC(=O)[C@H](Cc1c[nH]c2ccccc12)NC(=O)[C@H](Cc1c[nH]c2ccccc12)NC(=O)[C@H](CCC(N)=O)NC(=O)[C@H](Cc1c[nH]c2ccccc12)NC(=O)[C@H](CCCN=C(N)N)NC(=O)[C@@H](N)CCCN=C(N)N)C(=O)N[C@@H](Cc1c[nH]c2ccccc12)C(=O)N[C@@H](CCCN=C(N)N)C(=O)N[C@@H](CCCN=C(N)N)C(N)=O` [RRWQWWWQWRR] gave an MIC [14] of 4 µM (≈ 7.32 µg/mL), an MIC [25] of 4 µM (≈ 7.32 µg/mL) and an MIC [26] of at least 64 µM. It also gave an MIC [27] of 16 µM (≈ 29.3 µg/mL), an MIC [28] of at least 64 µM and an MIC [29] of at least 64 µM. The MIC [30] was at least 64 µM, the MIC [31] was 8 µM (≈ 14.6 µg/mL) and the MIC [4] was 4 µM (≈ 7.32 µg/mL). For the same molecule, the MIC [32] was 4 µM (≈ 7.32 µg/mL), the MIC [33] was 4 µM (≈ 7.32 µg/mL) and the MIC [20] was 4 µM (≈ 7.32 µg/mL).

`CC[C@H](C)[C@H](NC(=O)CNC(=O)[C@H](CCCN=C(N)N)NC(=O)[C@H](Cc1c[nH]c2ccccc12)NC(=O)[C@H](CC(C)C)NC(=O)[C@H](CC(C)C)NC(=O)[C@H](Cc1c[nH]c2ccccc12)NC(=O)[C@H](CCCN=C(N)N)NC(=O)CNC(=O)[C@@H](NC(=O)[C@@H](N)CCCN=C(N)N)[C@@H](C)CC)C(=O)N[C@@H](CCCN=C(N)N)C(=O)N[C@@H](CCCN=C(N)N)C(=O)N[C@H](C(=O)NCC(=O)N[C@@H](CCCN=C(N)N)C(=O)N[C@@H](Cc1c[nH]c2ccccc12)C(=O)N[C@@H](CC(C)C)C(N)=O)[C@@H](C)CC` [RIGRWLLWRGIRRIGRWL] was tested, and the MIC [34] was 4 µM (≈ 9.45 µg/mL), the MIC [35] was 2.83 µM and 4 µM and the MIC [36] was 4 µM (≈ 9.45 µg/mL). The MIC [37] was 2 µM (≈ 4.73 µg/mL).

Molecule `CC[C@H](C)[C@H](NC(=O)[C@H](CCCCN)NC(=O)[C@@H](N)CCCN=C(N)N)C(=O)N[C@@H](CCCCN)C(=O)N[C@H](C(=O)N[C@@H](Cc1ccc(O)cc1)C(=O)N[C@@H](CC(C)C)C(=O)N1CCC[C@H]1C(=O)N[C@@H](CCCN=C(N)N)C(=O)N[C@@H](CCSC)C(=O)N[C@@H](CCCCN)C(=O)O)C(C)C` [RKIKVYLPRMK] has an MIC [38] of 17.5 µM (≈ 25 µg/mL), an MIC [39] of 17.5 µM (≈ 25 µg/mL) and an MIC [40] of 8.73 µM (≈ 12.5 µg/mL). It also gave an MIC [41] of 17.5 µM (≈ 25 µg/mL), an MIC [42] of 17.5 µM (≈ 25 µg/mL) and an MIC [43] of at least 69.8 µM.

— DBAASP
